One molecule from patent US20230075822A1, “USE OF CASTALAGIN OR ANALOGS THEREOF FOR ANTI-CANCER EFFICACY AND TO INCREASE THE RESPONSE TO IMMUNE CHECKPOINT INHIBITORS” (THE ROYAL INSTITUTION FOR THE ADVANCEMENT OF …, priority 2020, published 2023) can be followed below.

In the experiment the test system is CD8^+ T cells. Description: Flow cytometry immune profiling of tumor and spleen, E0771 tumor model. The following applies: αPD-1 with or without treatment. It is filed as in vivo, C57BL/6 mice. As for the experimental part: FIGS. 7A-C are graphs showing the results of immune cell profiling by flow cytometry in the murine MCA-205 (FIGS. 7A-B) or E0771 (FIG. 7C) tumor model treated with anti-PD-1 and/or CC. The tumors and the spleens were harvested 9 days or 19 days after the first injection of anti-PD-1 mAb into mice bearing MCA-205 or E0771 tumors, respectively. Excised tumors were cut into small pieces and digested in RPMI medium containing Liberase 25 μg/mL (Roche) and DNase1 at 150 Ul/mL (Roche) for 30 minutes at 37° C. and then crushed and filtered twice using 100 and 70 μm cell strainers (Becton & Dickinson). Spleens were crushed in RPMI medium and subsequently filtered through a 100 μm cell strainer. Two million tumor cells or splenocytes were pre-incubated with purified anti-mouse CD16/CD32 (clone 93; eBioscience) for 30 minutes at 4° C., before membrane staining (CD45, CD3, CD4, CD8, PD1, PDL1, ICOS, CXCR3, CCR9, CD45RB, CD62L, CD44). For intracellular staining, the Foxp3 staining kit (eBioscience) was used. Dead cells were excluded using the Live/Dead Fixable aqua blue dead cell stain kit (Life Technologies). […] FIG. 7C is a graph showing the activation of intratumoral CD8^+ T cells (as assessed by MFI of ICOS^+CD8^+ T cells by flow cytometry) in TILs in the E0771 tumor model post-treatment with CC +/-αPD-1. […]

In the case of `O=C1OC[C@H]2OC(=O)c3cc(O)c(O)c(O)c3-c3c(O)c(O)c(O)c4c3C(=O)O[C@H]([C@H]3OC(=O)c5c-4c(O)c(O)c(O)c5[C@@H]3O)[C@@H]2OC(=O)c2cc(O)c(O)c(O)c2-c2c1cc(O)c(O)c2O` [castalagin, Castalagin], the “frequency of memory CD8^+ T cells (CD44^HighCD62L^−CD8^+)” value reads like this: (splenocytes) “increase in frequency of memory CD8^+ T cells”; (tumor microenvironment) “increase in frequency of memory CD8^+ T cells”.
